Source: patent US9066922B2, “Pharmaceutical composition for the treatment or prevention of diseases involving obesity, diabetes, metabolic syndrome, neuro-degenerative diseases and mitochondria dysfunction diseases” (MD BIOALPHA CO., LTD., priority 2005, dated 2015)

Assays:
AMPK = experiment: Determination of AMPK activation in C2C12 myoblast cells (SAMS peptide, [γ-32P]ATP); format: cell-based; details: differentiated C2C12 myoblast cells, 5 μg/ml, compared with control (DMSO 0.5% = 1)
Protocol: Myoblast cells, C2C12, were cultured in DMEM containing 10% bovine calf serum. When a cell density reached a range of about 85% to 90%, the culture medium was replaced with a medium containing 1% bovine calf serum to induce differentiation of cells. The thus-differentiated myoblast cells were treated with samples synthesized in Examples 1 through 29 at a concentration of 5 μg/ml, and compared with a control group. Enzymatic activity of AMPK was determined as follows. Firstly, C2C12 cells were lysed to obtain protein extracts and then ammonium sulfate was added to a final concentration of 30%, thereby precipitating proteins. Protein precipitates were dissolved in a buffer (62.5 mM Hepes, pH 7.2, 62.5 mM NaCl, 62.5 mM NaF, 1.25 mM Na pyrophosphate, 1.25 mM EDTA, 1 mM DTT, 0.1 mM PMSF, and 200 μM AMP). Thereafter, 200 μM SAMS peptide (HMRSAMSGLHLVKRR: the underlined serine residue is a phosphorylation site, as an AMPK phosphorylation site of acetyl-CoA carboxylase) and [γ-32P]ATP were added thereto and reactants were reacted for 10 minutes at 30° C. This was followed by spotting of the resulting reaction solution on p81 phosphocellulose paper. The p81 paper was washed with a 3% phosphoric acid solution and radioactivity thereof was measured. For each reaction condition, reactions involving no SAMS peptide were also conducted and basic values were subtracted from the thus-observed values.

[1] = tested on: C57BL/6JL Lep ob/Lep ob mice; experiment: Weight loss effects in obese mice (ob/ob): body weight; format: in vivo; details: 100 mg/kg for 26 days
From the text: (§1) 10-week-old C57BL/6JL Lep ob/Lep ob male mice having obesity characteristics and predisposition were purchased from Daehan Biolink Co., Ltd. (Chungchongbuk-do, Korea). Animals were raised in a breeding room maintained at a temperature of 23 C, 55% humidity, illumination of 300 to 500 lux, a 12-h light/dark (L/D) cycle, and ventilation of 10 to 18 times/hr. Animals were fed ad libitum pellets of Purina Rodent Laboratory Chow 5001 (purchased from Purina Mills Inc., St. Louis, Mo., USA) as a solid feed for experimental animals and tap water as drinking water. Mice were allowed to acclimate to new environment of the breeding room for two weeks and were then administered some pyrano-o-naphthoquinone and furano-o-naphthoquinone derivatives synthesized according to the present invention at doses of 100 mg/kg for 26 days. Observation was made on changes in body weight, blood glucose and dietary intake, with respect to a time course of administration. After administration was complete, Computed Tomography (CT) was performed to confirm changes in adipose tissue distribution of animals, changes in fat distribution of tissues in various organs, changes in sizes of adipocytes, and changes in glucose, lipid and enzyme levels in blood and liver.

[2] = tested on: C57BL/6JL Lep ob/Lep ob mice; experiment: Blood lipid, glucose and enzyme levels in obese mice (ob/ob); format: in vivo; design: unit not given here; details: 100 mg/kg for 26 days
From the text: as §1

AMP kinase = experiment: Phosphorylation of AMPK by β-lapachone in HepG2 cells; format: cell-based, Human; details: 10 μM, 30 min to 6 hr
Protocol: This example was carried out to confirm whether β-lapachone (Compound 1) has effects on phosphorylation of AMPK and ACC, which are intracellular energy-regulating proteins. In order to examine phosphorylation of AMP kinase and ACC (acetyl-CoA carboxylase) by β-lapachone, HepG2 cells (Human hepatocellular liver carcinoma cell line) were seeded onto a 6-well plate at a density of 1×10^5 cells per well, and cultured in a RPMI+10% FBS medium. After growing the cells for 24 hours, the culture medium was replaced with a serum-free RPMI medium, and cells were treated with β-lapachone (10 μM) for 30 min, 1 hr, 2 hr, 4 hr and 6 hr, respectively, in combination with a control (DMSO). Anti-ACC and Anti-pS79-ACC were used in order to observe phosphorylated ACC, whereas Anti-AMPK and Anti-pT172-AMPK were used in order to observe phosphorylated AMP kinase, respectively.

[3] = tested on: mRNAs for HK2, GLUT2 and GLUT4; experiment: Gene expression of proteins involved in glucose metabolism in DIO mice; format: in vivo, C57BL/6 mice; details: 50 mg/kg daily oral, liver and gonadal adipose tissues, vs control group
Protocol: β-lapachone was administered daily to diet-induced obesity (DIO) mice at a dose of 50 mg/kg via an oral route, and levels of mRNAs for hexokinase 2 (HK2) (21,22), glucose transporter (GLUT) 2 and GLUT4 (18,19,20) in the liver and gonadal adipose tissues were confirmed by real-time quantitative PCR. GLUT is well-known as a protein that mediates intracellular uptake and expenditure of blood glucose in organs such as liver, adipocytes and myoblast cells, whereas HK2, an enzyme belonging to a glucokinase class, phosphorylates […] that are thus allowed to enter glycolytic pathways. […] Increased levels of GLUT2 and GLUT4 facilitate intracellular uptake of blood glucose, thus presenting the possibility of β-lapachone as an anti-diabetic drug.

[4] = tested on: diet-induced obesity (DIO) C57BL/6 mice; experiment: Body weight, dietary intake, fat, blood parameters and histology in diet-induced obesity (DIO) C57BL/6 mice; format: in vivo
From the text: FIGS. 16A through 16C show whole laparotomized states of animals after administration of β-lapachone to DIO C57BL/6 mice for 56 days and results of oil red O staining and EM examination on fat accumulation in liver tissues. […] In order to confirm improvement in condition of fatty liver in FIG. 16, accumulated fat in the liver was stained using oil red O staining and as a result, it was confirmed that fat has diminished by 90% or more, as compared to a control group.
Referring to FIG. 17, after daily administration of β-lapachone to DIO C57BL/6 mice at a dose of 50 mg/kg via an oral route, animals were laparotomized on day 56 of β-lapachone administration and perilipin staining was performed on gonadal adipose tissues.
Referring to FIG. 19, after daily administration of β-lapachone to DIO C57BL/6 mice at a dose of 50 mg/kg via an oral route, H&E staining of brown adipose tissues was performed on day 56 of administration.

Sprague-Dawley rats = experiment: Acute toxicity test, peritoneal administration; format: in vivo; details: peritoneal, 50, 100 and 200 mg/kg, observed for 2 weeks
[5] = DIO C57BL/6 mice, 56 days, vs control group
[6] = DIO mice, 50 mg/kg daily oral, day 56
[7] = DIO mice, 50 mg/kg daily oral, days 3, 7, 14, 28 and 56

**Q.** For CC1(C)CCC2=C(O1)c1ccccc1C(=O)C2=O [Compound 1, β-Lapachone], which AMPK fold (AMPK) is on record?
**A.** Its AMPK fold is 2.2 fold.

**Q.** What about the “Final BW” value [1] of the same molecule?
**A.** The value was 46.5 g.

**Q.** And the change in vivo at 100 mg/kg ([1]; Mus musculus, 624 h, read-out: Increase in BW)?
**A.** Its change in vivo at 100 mg/kg is -16.8%.

**Q.** What about the Cholesterol [2] of the same molecule?
**A.** Its Cholesterol is 121.

**Q.** And the GOT [2]?
**A.** Its GOT is 42.

**Q.** And the GPT [2]?
**A.** Its GPT is 39.

**Q.** What about the Glucose [2] of the same molecule?
**A.** The Glucose was 120.

**Q.** What about the Triglyceride [2] of the same molecule?
**A.** Its Triglyceride is 143.

**Q.** What about the “phosphorylation of AMP kinase (Anti-pT172-AMPK), onset” value (AMP kinase) of the same molecule?
**A.** The value was “could be observed from the initial time (30 min)”.

**Q.** What about the “phosphorylation of AMP kinase, duration of effect” value (AMP kinase) of the same molecule?
**A.** Its value is “lasted up to 6 hours”.

**Q.** What about the “GLUT2 mRNA expression” value [3] of the same molecule?
**A.** Its value is “significant increases”.

**Q.** What about the “GLUT4 mRNA expression” value [3] of the same molecule?
**A.** Its value is “significant increases”.

**Q.** What about the “HK2 mRNA level” value [3] of the same molecule?
**A.** Its value is “decreased”.

**Q.** What about the “visceral fat and body weight (laparotomized state)” value ([4]; DIO C57BL/6 mice, 56 days) of the same molecule?
**A.** Its value is “conspicuous decreases in visceral fat and body weight”.

**Q.** And the “EM examination on liver tissues: fat vacuoles and glycogen stores” value [4, 5]?
**A.** Its value is “remarkably decreased fat vacuoles and glycogen stores”.

**Q.** And the “EM examination on liver tissues: mitochondrial numbers” value [4, 5]?
**A.** The value was “significant increases in mitochondrial numbers”.

**Q.** And the “decrease of accumulated fat in the liver (oil red O staining)” value [4, 5]?
**A.** The value was at least 90%.

**Q.** And the “weight changes in various organs” value [4, 5]?
**A.** The value was “significant changes in weight of tissues”.

**Q.** What about the body weight ([4]; DIO mice on high-fat diet, 50 mg/kg daily oral, 56 days, vs control group) of the same molecule?
**A.** Its body weight is “continuous weight loss for 56 days”.

**Q.** What about the dietary intake ([4]; DIO mice, 50 mg/kg daily oral, 56 days) of the same molecule?
**A.** The dietary intake was “decreases in dietary intake for first two weeks”.

**Q.** And the “size of adipocytes in brown adipose tissue (EM examination)” value [4, 6]?
**A.** The value was “remarkably decreased”.

**Q.** And the “size of adipocytes in brown adipose tissues (H&E staining)” value [4, 6]?
**A.** The value was “remarkably decreased”.

**Q.** What about the “size of adipocytes in gonadal adipose tissues (perilipin staining)” value [4, 6] of the same molecule?
**A.** The value was “remarkably decreased”.

**Q.** What about the “blood fat and glucose levels” value [4, 7] of the same molecule?
**A.** Its value is “significantly improved”.

**Q.** What about the “blood level of resistin” value [4, 7] of the same molecule?
**A.** Its value is “significantly improved”.

**Q.** What about the “insulin resistance and leptin resistance” value [4, 7] of the same molecule?
**A.** The value was “also improved”.

**Q.** What about the mortality (Sprague-Dawley rats) of the same molecule?
**A.** Its mortality is “none of the animals died”.
